# Where “and” joins values, the source holds several entries; their conditions need not be identical. Equal entries are not always repeated. Where two headings read alike, the source gives them in different places.
# What was measured:
# Format in all cases: cell-based
# [1] = tested on: biological indicator organism; experiment: Example 21 designed experiments, modified AAMI EO test packs, log reduction (organism not specified); conditions: Example 21, mean over designed experiments; both precursors vaporized at 74° C.; 40 kHz, 5 kW
# Experimental: AAMI EO Test Packs: Modified AAMI Standard EO packs were prepared in which the BI strip was removed from its glassine wrap before processing. Three strips were placed in each syringe, and the syringe was closed at its large end with the standard rubber stopper. A second syringe was prepared containing one MDT Biosign CLBI (results reported as fractional negative). The syringes were placed adjacent to one another and were wrapped in a huckabuck towel per the AAMI EO Test Pack standard. The entire assembly was placed in a Baxter ‘Tower Dual-Peel’ 7.5″×13″ paper-plastic peel pouch, which was subsequently heat sealed.
# Statistical Design of Experiments: This example is based upon both Taguchi and Greco-Latin Square experimental designs in accordance with standard statistical design of experiment techniques [CSS:Statistica, StatSoft, Tulsa, Okla. ]. These experimental designs permitted variation of four parameters over four discrete levels (Greco-Latin Square) or five parameters over four discrete levels (Taguchi L′16 design). The resultant data, reported as log reduction, is analyzed to provide mean values for each of the parameters at each parameter level. Also provided are ANOVA and correlation results (for reduction vs. exposure time), which evaluate the statistical validity of the data. […]
# Bstm = experiment: Example 22 direct comparison of sterilant precursors, AAMI standard EO test packs; conditions: Example 22: 45 min plasma, 40 kHz, 5 kW, 600 microns; 30 min preconditioning; base pressure 100 microns; Bstm 10^6 spores; peracetic acid vaporized at 60° C., hydrogen peroxide at 74° C.
# Experimental: A direct comparison of 15% peracetic acid and 70% hydrogen peroxide sterilant precursors was made by exposing AAMI standard EO test packs for 45 minutes to plasma induced by 40 kHz excitation frequency with 5 kW RF power. […] No glassine was used on the BI strips (Bstm, 10^6 spore population, MDT lot 601).
# [2] = tested on: Bacillus Subtilis var Niger; conditions: for vials with total kill, of ten Attest vials: Pyrex chamber, cooled cylinder, 0.280-0.300 torr, 38-57° C., moist = H2O 300 ppm
# Text: However, for each of the examples the general technique involved was one in which the material to be sterilized was placed directly in the reaction chamber, or placed within a Tyvek/polyethylene pouch which itself was sealed and placed in a wire basket within the reaction chamber.
# The materials used for verification of sterilization effectiveness were “Attest” vials obtained from 3M Company, or “Spordex” bacterial test strips obtained from the American Sterilizer Company, each vial or “Spordex” envelope contained a bacterial strip having an original spore population of not less than 1×10^6 Bacillus Subtilis var Niger per strip, but more commonly in the range 2.2-4.0×10^6 spores/strip. The strips contained the permeable plastic vials were not brought into contact with the culture solution contained in any of the vials prior to sterilization. The vials were placed within the Tyvek/polyethylene bags during the plasma sterilization, alongside devices or instruments to be sterilized. The bags were always sealed during the sterilization process.
# For each example the chamber was first evacuated to an initial low pressure level after the materials (in the bags or pouches) were placed within it. The chamber was thereafter filled with the appropriate gas prior to striking the discharge, and the gas continued to flow through the chamber at a controlled rate to establish a steady state sterilization pressure. The discharge was initiated by the application of RF or microwave power as indicated. The discharge was maintained for a controlled time period at the end of which the power was turned off, the chamber was first evacuated, then backfilled with air through a bacteria retentive filter, and later opened and the samples removed. The temperature within the chamber during the process was maintained at less than 70° C., and more typically around 25° C. to 65° C., as sensed by an iron-constantan, type “J”, thermocouple circuitry and monitored by an analog temperature meter.
# Subsequent to the tests, the spore strips in the “Attest” vials where brought into contact with the self-contained culture solution and incubated for 72 hr, at the end of which period microorganism growth or no growth would be indicated by the resultant color of the culture solution. Alternatively, the spore strips were submitted to an independent testing laboratory which performed a total plate count on the sample strips using a procedure in which 100 milliliters of sterile deionized water were added to each strip in a sterile whirl-pak bag. The bag was then placed in a lab blender for 10 minutes. One 10 milliliter aliquot of sample, a duplicate one milliliter sample, and two consecutive 10^−1 dilutions were plated using Tryptic Soy Agar. The plates were then incubated at 30-35° C. for 72 hours. After incubation, the plates were read and recorded, and the results calculated on a Colony Forming Unit (CFU) basis.
structure (smiles),measurement,setting,value
"CC(=O)OO [15% peracetic acid, peracetic acid]",mean log reduction,[1],2.8 log reduction
same,mean log reduction,Bstm,5.57
"OO [70% hydrogen peroxide, hydrogen peroxide]",mean log reduction,[1],3.1 log reduction
same,mean log reduction,Bstm,5.43
"N#N [Dry N2, Nitrogen]","vials with total kill, of ten Attest vials","[2]; Example 18: exposure 30 min, 100 scc/min, 0.020 W/cc",0 vials - total kill
same,"vials with total kill, of ten Attest vials","[2]; Example 18: exposure 45 min, 100 scc/min, 0.020 W/cc",0 vials - total kill
same,"vials with total kill, of ten Attest vials","[2]; Example 18: exposure 60 min, 100 scc/min, 0.020 W/cc",1 vial - total kill vials
same,"vials with total kill, of ten Attest vials","[2]; Example 18: exposure 75 min, 100 scc/min, 0.020 W/cc",2 vials - total kill
"O=O [O2, Oxygen]",Percent Kill,[2],99.9999%
same,Percent Kill (%),[2],77.6923% and 99.9999%
same,Resultant Microbial Count (CFUs),[2],5.8 × 10^5 CFUs and <10 CFUs
same,Resultant microbial count,[2],< 10 CFU
same,Percent Kill,"[2]; Example 2: metal chamber, cooled perforated cylinder (FIG. 4), 20 scc/min, 0.30 torr, 0.050 W/cm^3, 60 min, 32° C.",Total kill
same,Percent Kill,"[2]; Example 4: metal chamber, two uncooled perforated cylinders (FIG. 6), 20 scc/min, 0.30 torr, 0.050 W/cm^3, 60 min, 76° C.",Total kill
same,Percent Kill,"[2]; Example 8: Pyrex chamber, cooled perforated cylinder (FIG. 1), 25 scc/min, 0.30 torr, 0.015 W/cm^3, 30 min, 26° C.",Total kill
same,Percent Kill,"[2]; Example 9: Pyrex chamber, uncooled perforated cylinder (FIG. 1), 25 scc/min, 0.30 torr, 0.015 W/cm^3, 30 min, 83° C.",Total kill
same,Percent Kill,"[2]; Example 12: Pyrex chamber, two uncooled perforated cylinders, 70 scc/min, 0.275 torr, 0.016 W/cc, 45 min, 92° C., AAMI standard sterilization test pack",Total Kill
same,Percent Kill,"[2]; Example 13: Pyrex chamber, two cooled perforated cylinders, conditions as Example 12, 54° C., AAMI test pack",Total Kill
same,Percent Kill,"[2]; Example 14: Pyrex chamber, uncooled perforated cylinder, 70 scc/min, 0.275 torr, 0.014 W/cc, 30 min, 85° C.",Total Kill
same,Percent Kill,"[2]; Example 15: Pyrex chamber, cooled perforated cylinder (FIG. 1), conditions as Example 14, 47° C.",Total Kill
same,Percent Kill,"[2]; Example 16: Pyrex chamber, cooled perforated cylinder (FIG. 1), conditions as Example 14, exposure 2¼ hr, 51° C.",Total Kill
same,Percent Kill,"[2]; Example 19: spore strip in middle of 24-inch PVC or silicone rubber tubing, in sealed pouch, 100 scc/min, 0.280 torr, 0.020 W/cc, 70-105 min, 50° C.",Total Kill
